Experimental data taken from US5462941A, “3,6-disubstituted pyradazine derivatives” (Mitsubishi Chemical Corporation, priority 1991, dated 1995).

Key:
[1] = tested on: Myocardial Infarction of a Rat; assay: Effect on myocardial infarction of a rat induced by ligation of the left coronary artery; format: in vivo, rat (male SD); conditions: oral, 60 minutes before ligation
Protocol: Effects of 3,6-Disubstituted Pyridazine Derivatives on the Myocardial Infarction of a Rat Induced by the Ligation of the Left Coronary Artery
A rat group consisting of 8 male SD rats each weighing 200 to 250 g was tested. Myocardial infarction was produced in accordance with a method of Selye et al. That is, each rat was fixed on an operating boar on its back, and an about 1.5 cm incision had been made through the skin along the left sternal border under weak etherization. The pericardium was broken to exteriorize the heart, and the left coronary artery was ligated at a position of 1 to 2 mm apart from the origin thereof with black blade 4-O silk suture (produced by Hama Ika Kogyo). Thereafter, the heart was restored to its original position and the chest was sutured. The air in the throacic cavity was discharged by pressing both side breast portions. After the resumption of respiration, the ST elevation in the standard limb lead II by an electrocardiograph (Model ECG-6601, produced by Nihon Koden Co.,). 24 hours after the ligation, blood was collected from the aortas at the abdomen. A fatal amount of blood was then drawn from each rat. The heart was taken out, and a tissue slice (about 2 mm thick) having an annular cross section was cut from the central portion of the heart. The tissue slice was incubated in 20 ml of 1% TTC (tryphenyl tetrazolium chloride, produced by Wako Pure Chemical Industries Limited) dissolved in 0.09M of phosphoric acid buffer (pH 8.6) at 37° C. for 20 minutes while shielding light. The tissue slice was photographed by a stereoscopic microscope to produce a color slide. The image of the tissue slice was projected on a wall surface from the color slide. The cut surface, the infarcted portion (portion not dyed with TTC) and the non-infarcted portion (portion dyed with TTC) were traced on a sheet, and the area of the infarcted portion in the whole cross section was calculated. The medicine was suspended in an aqueous 1% tragacanth solution and orally administered to each rat 60 minutes before the ligation of the left coronary artery.
The myocardial infarction inhibitory ratio was calculated from the following formula: [formula] A: Infarction degree in the group (controlled group) to which only a solution of 1% tragacanth was administered
B: Infarction degree in the group to which the tragacanth solution containing a medicine was administered

[2] = tested on: Platelet Agglutination of Rats; assay: Inhibitory effect on collagen-induced platelet agglutination of rats in vitro (platelet rich plasma); format: cell-based; conditions: rat platelet rich plasma, read-out: in vitro Inhibitory ratio (platelet agglutination); for inhibition at 0.3 µM: 3 × 10^-7 M; for inhibition at 0.1 µM: 10^-7 M; for inhibition at 1 µM: 10^-6 M
Protocol: Inhibitory Effects of 3,6-Disubstituted Pyridazine Derivatives on Platelet Agglutination of Rats […]
Arterial blood of a rat was centrifuged to obtain platelet rich plasma. […] of a medicinal solution was added to 250 μl of the platelet rich plasma, and the mixture was incubated for 2 minutes. Thereafter, 3 μg of collagen (produced by Hormon-Chemie) was added to the mixture as a platelet agglutination inducer, and changes in the platelet agglutination were observed and recorded by a 2-channel platelet agglutination degree measuring instrument (Model DP247E, produced by Sienco) for 10 minutes.
(§1) The platelet agglutination inhibitory ratio was calculated from the following formula:
Inhibitory ratio=(Tc-Ts)/Tc×100
Tc: Agglutination degree when only a solvent was added
Ts: Agglutination degree when a medicinal solution was added

[3] = tested on: Platelet Agglutination of Rats; assay: Inhibitory effect on collagen-induced platelet agglutination of rats after oral administration (ex vivo); format: in vivo, rat (male Wistar-ST); conditions: 1 mg/kg p.o., blood collected one hour after; collagen 7 to 10 μg/ml; rat
Protocol: Inhibitory Effects of 3,6-Disubstituted Pyridazine Derivatives on Platelet Agglutination of Rats In Vivo (Oral Administration)
A rat group consisting of 8 male Wistar-ST rats each weighing about 250 g was tested. Each compound was suspended in aqueous 1% tragacanth solution. The thus-prepared suspension was orally administered to each rat at a dose of 4 ml/kg. One hour after, blood was collected from each carotid artery through a cannula into a plastic test tube containing 3.8% sodium citrate in amount corresponding to 1/10 of the volume of the test tube) and the mixture was stirred. Thereafter, the mixture was centrifuged at 200×g rpm for 15 minutes, and the supernatant liquid was taken as platelet rich plasma (PRP). The residue was further centrifuged at 2000×g rpm for 15 minutes, and the supernatant liquid was collected as platelet poor plasma (PPP) and used for measurement of the platelet agglutinating ability. The platelet agglutinating ability was measured by a 2-channel platelet agglutination degree measuring instrument (Model DP247E, produced by Sienco), and recorded by a 2-pen recorder.
Collagen (produced by Hormon-Chemie) having a concentration of 7 to 10 μg/ml was used as a platelet agglutination inducer.
as §1
Inhibitory ratio=(A-B)/A×100 (%)
A: Agglutination degree in the group (controlled group) to which only a solution of 1% tragacanth was administered
B: Agglutination degree in the group to which the tragacanth solution containing a compound was administered

`CC(=O)Oc1ccccc1C(=O)O` [Aspirin, reference compound] was tested, and the “percentage of inhibition (myocardial infarction)” value (“percentage of inhibition” for short) ([1]; 100 mg/kg) was 10.7 percentage.
In the case of `C[C@@H](Nc1nnc(C2CCCCC2)c2ccccc12)c1ccccc1` [Example 1, (R)-1-(α-phenylethylamino)-4-cyclohexylphthalazine], the inhibition at 0.3 µM [2] is reported as 97.1% and the inhibition at 0.1 µM [2] is reported as 89.2%.
`CCC(Nc1nnc(C2CCCCC2)c2ccccc12)c1ccccc1` (centres unmarked) [Example 2] showed an inhibition at 0.3 µM [2] of 96% and an inhibition at 0.1 µM [2] of 56%.
For `c1ccc2c(C3CCCCC3)nnc(NC3CCCCC3)c2c1` [Example 3], the inhibition at 0.3 µM [2] was 18.4% and the inhibition at 1 µM [2] was 100%.
In the case of `CC1(C)CC(Nc2nnc(C3CCCCC3)c3ccccc23)CC(C)(C)C1` [Example 5], the inhibition at 1 µM [2] is reported as 51.8%.
In the case of `C[C@@H](Nc1nnc(-c2ccsc2)c2ccccc12)c1ccccc1` [Example 39, (R)-1-(α-phenylethylamino)-4-(3-thienyl) phthalazine], the inhibition at 0.1 µM [2] is reported as 94.9%.
`Cc1csc(-c2nnc(N[C@H](C)c3ccccc3)c3ccccc23)c1` [Example 42, (R)-1-(α-phenylethylamino)-4-(4-methyl-2-thienyl)phthalazine] was tested, and the inhibition at 0.1 µM [2] was 96.3%.
`C[C@@H](Nc1nnc(-c2ccco2)c2ccccc12)C1CCCCC1` [Example 45, (R)-1-(α-cyclohexylethylamino)-4-(2-furyl)phthalazine] showed an inhibition at 0.1 µM [2] of 98.6%.
Compound `c1coc(-c2nnc(-n3ccnc3)c3ccccc23)c1` [Example 46, 1-(1-imidazolyl)-4-(2-furyl)phthalazine] has an inhibition at 0.3 µM [2] of 40.6% and an inhibition at 1 µM [2] of 66.5%.
With `C[C@@H](Nc1nnc(-c2ccccc2)c2ccccc12)C1CCCCC1` [Example 60, (R)-1-(1-cyclohexylethylamino)-4-phenylphthalazine] the inhibition at 0.1 µM [2] was 94.3%, the “ex vivo Inhibitory ratio (platelet agglutination)” value (“ex vivo Inhibitory ratio” below) [3] was 51.3% and the “percentage of inhibition” value ([1]; 1 mg/kg) was 68.5 percentage. The “percentage of inhibition” value ([1]; 3 mg/kg) was 82.2 percentage.
In the case of `C[C@H](Nc1nnc(-c2ccccc2)c2ccccc12)C1CCCCC1` [Example 61], the inhibition at 0.3 µM [2] is reported as 94.4% and the inhibition at 0.1 µM [2] is reported as 30.2%.
In the case of `C[C@@H](Nc1nnc(-c2cccs2)c2sccc12)c1ccccc1` [Example 69, (R)-4-(1-phenylethylamino)-7-(2-thienyl) thieno[2 3-d]pyridazine], the inhibition at 0.3 µM [2] is reported as 95.2% and the inhibition at 0.1 µM [2] is reported as 50.8%.
`C[C@@H](Nc1nnc(-c2ccccc2)c2sccc12)c1ccccc1` [Example 70] showed an inhibition at 0.1 µM [2] of 95.2%.
Work on `CCC(Nc1nnc(-c2ccccc2)c2sccc12)c1ccccc1` (centres unmarked) [Example 71] yielded an inhibition at 0.3 µM [2] of 98.6% and an inhibition at 0.1 µM [2] of 30.7%.
For `CC(Nc1nnc(-c2ccccc2)c2sccc12)c1ccccc1Cl` (centres unmarked) [Example 72], the inhibition at 0.3 µM [2] was 95.3% and the inhibition at 0.1 µM [2] was 5.1%.
`Cc1cccc(C(C)Nc2nnc(-c3ccccc3)c3sccc23)c1` (centres unmarked) [Example 73] gave an inhibition at 0.3 µM [2] of 95.6% and an inhibition at 0.1 µM [2] of 42.8%.
For `COc1ccccc1C(C)Nc1nnc(-c2ccccc2)c2sccc12` (centres unmarked) [Example 74], the inhibition at 0.3 µM [2] was 93.5% and the inhibition at 0.1 µM [2] was 73.4%.
In the case of `C[C@@H](Nc1nnc(-c2ccccc2)c2sccc12)C1CCCCC1` [Example 75], the inhibition at 0.1 µM [2] is reported as 94.5% and the “ex vivo Inhibitory ratio” value [3] is reported as 50.2%.
Work on `Cc1ccccc1-c1nnc(N[C@H](C)c2ccccc2)c2ccsc12` [Example 79] yielded an inhibition at 0.3 µM [2] of 6.6% and an inhibition at 1 µM [2] of 94.3%.
Compound `c1ccc(-c2nnc(NC3CCCCC3)c3ccsc23)cc1` [Example 80] has an inhibition at 0.1 µM [2] of 100%.
In the case of `C[C@@H](Nc1nnc(-c2ccccc2)c2ccsc12)c1ccccc1` [Example 82], the inhibition at 0.1 µM [2] is reported as 93.3% and the “ex vivo Inhibitory ratio” value [3] is reported as 37.9%.
Work on `C[C@H](Nc1nnc(-c2ccccc2)c2ccsc12)c1ccccc1` [Example 83] yielded an inhibition at 0.3 µM [2] of 94.3%.
`CCC(Nc1nnc(-c2ccccc2)c2ccsc12)c1ccccc1` (centres unmarked) [Example 84] gave an inhibition at 0.3 µM [2] of 24.5% and an inhibition at 1 µM [2] of 61.6%.
`CCCCC(Nc1nnc(-c2ccccc2)c2ccsc12)c1ccccc1` (centres unmarked) [Example 85] showed an inhibition at 1 µM [2] of 40.7%.
`CC(Nc1nnc(-c2ccccc2)c2ccsc12)c1ccccc1Cl` (centres unmarked) [Example 86] was tested, and the inhibition at 0.3 µM [2] was 78.2% and the inhibition at 1 µM [2] was 90.2%.
`Cc1cccc(C(C)Nc2nnc(-c3ccccc3)c3ccsc23)c1` (centres unmarked) [Example 87] gave an inhibition at 1 µM [2] of 18%.
In the case of `COc1ccccc1C(C)Nc1nnc(-c2ccccc2)c2ccsc12` (centres unmarked) [Example 89], the inhibition at 0.3 µM [2] is reported as 49.5% and the inhibition at 1 µM [2] is reported as 95.4%.
For `C[C@@H](Nc1nnc(-c2ccccc2)c2ccsc12)C1CCCCC1` [Example 90], the inhibition at 0.3 µM [2] was 94.4%, the inhibition at 0.1 µM [2] was 32.7% and the “ex vivo Inhibitory ratio” value [3] was 60.6%.
With `C[C@@H](Nc1nnc(-c2ccccc2)c2occc12)C1CCCCC1` [Example 95, (R)-4-(1-cyclohexylethylamino)-7-phenyl-furano[2,3-d]pyridazine] the inhibition at 0.3 µM [2] was 100%, the inhibition at 0.1 µM [2] was 94.4% and the “ex vivo Inhibitory ratio” value [3] was 63.1%.
For `Clc1ccccc1CN1CCc2sccc2C1` [Ticlopidine, reference compound], the “percentage of inhibition” value ([1]; 30 mg/kg) was 10.1 percentage.
